# Patent US20100267561A1, “HERBICIDAL PYRIDAZINONE DERIVATIVES” (priority 2007, published 2010)
# Assays:
# Assay in all cases: Test B pre-/postemergence plant response
# Format in all cases: in vivo
# kochia (Kochia scoparia) = conditions: for Kochia plant response rating: 8 g ai/ha
# Method in brief: (§1)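 Visual scoring from 0 (no effect) to 100 (complete control) against untreated controls was done 13 to 15 days after greenhouse treatment. Chemicals were formulated in a surfactant-containing non-phytotoxic solvent and applied to soil preemergence or to 1- to 4-leaf (2-18 cm) plants postemergence.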
# [1] = test system: yellow nutsedge (Cyperus esculentus); conditions: for Nutsedge, Yellow plant response rating: 8 g ai/ha
# Method in brief: as §1
# [2] = test system: blackgrass (Alopecurus myosuroides)
# Method in brief: as §1
# [3] = test system: catchweed bedstraw (Galium aparine); conditions: Preemergence
# Method in brief: as §1
# [4] = test system: lambsquarters (Chenopodium album); conditions: for Lambsquarters plant response rating: 8 g ai/ha
# Method in brief: as §1
# [5] = test system: giant foxtail (Setaria faberii); conditions: for Foxtail, Giant plant response rating: 8 g ai/ha
# Method in brief: as §1
# [6] = test system: velvetleaf (Abutilon theophrasti); conditions: for Velvetleaf plant response rating: 8 g ai/ha
# Method in brief: as §1
# corn (Zea mays) = conditions: for Corn plant response rating: 8 g ai/ha
# Method in brief: as §1
# [7] = test system: downy bromegrass (Bromus tectorum); conditions: for Bromegrass, Downy plant response rating: 8 g ai/ha
# Method in brief: as §1
# [8] = test system: common (oilseed) sunflower (Helianthus annuus); conditions: Preemergence
# Method in brief: as §1
# [9] = test system: pigweed (Amaranthus retroflexus); conditions: for Pigweed plant response rating: 8 g ai/ha
# Method in brief: as §1
# [10] = test system: common ragweed (Ambrosia elation); conditions: for Ragweed plant response rating: 8 g ai/ha
# Method in brief: as §1
# wild oat (Avena fatua) = conditions: for Oat, Wild plant response rating: 8 g ai/ha
# Method in brief: as §1
# [11] = test system: woolly cupgrass (Eriochloa villosa); conditions: for Cupgrass, Woolly plant response rating: 8 g ai/ha
# Method in brief: as §1
# [12] = Postemergence, 16 g ai/ha, scale 0 to 100
# [13] = Postemergence, 31 g ai/ha, scale 0 to 100
# [14] = Postemergence, 62 g ai/ha, scale 0 to 100, 0 no effect, 100 complete control
# [15] = Preemergence, 16 g ai/ha, scale 0 to 100 (0 no effect, 100 complete control)
# [16] = Preemergence, 31 g ai/ha, 0 to 100 scale, 0 no effect, 100 complete control
# [17] = Preemergence, 62 g ai/ha, scale 0 to 100
# [18] = Preemergence, 31 g ai/ha, scale 0 to 100 (0 no effect, 100 complete control)
# [19] = 16 g ai/ha, scale 0 to 100 (0 no effect, 100 complete control)
structure (smiles),measurement,setting,value
Cn1ncc(O)c(-n2nc(-c3ccc(Cl)cc3)cc2C2CC2)c1=O [Compound 45],Kochia plant response rating,"kochia (Kochia scoparia); postemergence, 0-100 scale",0
same,"Plant response rating, Kochia",kochia (Kochia scoparia); [12],0
same,"Plant response rating, Kochia",kochia (Kochia scoparia); [13],0
same,"Plant response rating, Kochia",kochia (Kochia scoparia); [14],0
same,"Plant response rating, Kochia",kochia (Kochia scoparia); [15],0
same,"Plant response rating, Kochia",kochia (Kochia scoparia); [16],0
same,"Plant response rating, Kochia",kochia (Kochia scoparia); [17],0
same,Kochia plant response rating,"kochia (Kochia scoparia); Preemergence, scale 0 to 100",0
same,"Nutsedge, Yellow plant response rating","[1]; postemergence, 0-100 scale",0
same,"Plant response rating, Nutsedge, Yellow",[1]; [12],0
same,"Plant response rating, Nutsedge, Yellow",[1]; [13],0
same,"Plant response rating, Nutsedge, Yellow",[1]; [14],0
same,"Plant response rating, Nutsedge, Yellow",[1]; [15],0
same,"Plant response rating, Nutsedge, Yellow",[1]; [18],0
same,"Plant response rating, Nutsedge, Yellow",[1]; [17],0
same,"Nutsedge, Yellow plant response rating","[1]; Preemergence, scale 0 to 100",0
same,Blackgrass plant response rating,"[2]; 8 g ai/ha, postemergence, 0-100 scale",0
same,"Plant response rating, Blackgrass",[2]; [12],20
same,"Plant response rating, Blackgrass",[2]; [13],85
same,"Plant response rating, Blackgrass",[2]; [14],90
same,"Plant response rating, Blackgrass",[2]; [15],98
same,"Plant response rating, Blackgrass",[2]; [16],100
same,"Plant response rating, Blackgrass",[2]; [17],100
same,"Plant response rating, Galium",[3]; [19],0
same,"Plant response rating, Galium","[3]; 31 g ai/ha, 0 to 100 scale, 0 no effect, 100 complete control",0
same,"Plant response rating, Galium","[3]; 62 g ai/ha, scale 0 to 100",0
same,Galium plant response rating,"[3]; 8 g ai/ha, scale 0 to 100",0
same,Lambsquarters plant response rating,"[4]; postemergence, 0-100 scale",0
same,"Plant response rating, Lambsquarters",[4]; [12],0
same,"Plant response rating, Lambsquarters",[4]; [13],0
same,"Plant response rating, Lambsquarters",[4]; [14],0
same,"Plant response rating, Lambsquarters",[4]; [15],0
same,"Plant response rating, Lambsquarters",[4]; [16],0
same,"Plant response rating, Lambsquarters",[4]; [17],0
same,Lambsquarters plant response rating,"[4]; Preemergence, scale 0 to 100",0
same,"Foxtail, Giant plant response rating","[5]; postemergence, 0-100 scale",90
same,"Plant response rating, Foxtail, Giant",[5]; [12],98
same,"Plant response rating, Foxtail, Giant",[5]; [13],100
same,"Plant response rating, Foxtail, Giant",[5]; [14],100
same,"Plant response rating, Foxtail, Giant",[5]; [15],0
same,"Plant response rating, Foxtail, Giant",[5]; [16],35
same,"Plant response rating, Foxtail, Giant",[5]; [17],45
same,"Foxtail, Giant plant response rating","[5]; Preemergence, scale 0 to 100",0
same,Velvetleaf plant response rating,"[6]; postemergence, 0-100 scale",0
same,"Plant response rating, Velvetleaf",[6]; [12],0
same,"Plant response rating, Velvetleaf",[6]; [13],0
same,"Plant response rating, Velvetleaf",[6]; [14],0
same,"Plant response rating, Velvetleaf",[6]; [15],0
same,"Plant response rating, Velvetleaf",[6]; [18],0
same,"Plant response rating, Velvetleaf","[6]; Preemergence, 62 g ai/ha, 0 to 100 scale, 0 no effect, 100 complete control",0
same,Velvetleaf plant response rating,"[6]; Preemergence, scale 0 to 100",0
same,Corn plant response rating,"corn (Zea mays); postemergence, 0-100 scale",85
same,"Plant response rating, Corn",corn (Zea mays); [12],90
same,"Plant response rating, Corn",corn (Zea mays); [13],95
same,"Plant response rating, Corn",corn (Zea mays); [14],95
same,"Plant response rating, Corn",corn (Zea mays); [15],55
same,"Plant response rating, Corn",corn (Zea mays); [16],65
same,"Plant response rating, Corn",corn (Zea mays); [17],98
same,Corn plant response rating,"corn (Zea mays); Preemergence, scale 0 to 100",0
same,"Bromegrass, Downy plant response rating","[7]; postemergence, 0-100 scale",30
same,"Plant response rating, Bromegrass, Downy",[7]; [12],60
same,"Plant response rating, Bromegrass, Downy",[7]; [13],90
same,"Plant response rating, Bromegrass, Downy",[7]; [14],90
same,"Plant response rating, Bromegrass, Downy",[7]; [15],50
same,"Plant response rating, Bromegrass, Downy",[7]; [16],80
same,"Plant response rating, Bromegrass, Downy",[7]; [17],90
same,"Bromegrass, Downy plant response rating","[7]; Preemergence, scale 0 to 100",0
same,"Plant response rating, Sunflower",[8]; [19],0
same,"Plant response rating, Sunflower","[8]; 31 g ai/ha, scale 0 to 100 (0 no effect, 100 complete control)",0
same,"Plant response rating, Sunflower","[8]; 62 g ai/ha, scale 0 to 100",0
same,Sunflower plant response rating,"[8]; 8 g ai/ha, scale 0 to 100",0
same,Pigweed plant response rating,"[9]; postemergence, 0-100 scale",0
same,"Plant response rating, Pigweed",[9]; [12],0
same,"Plant response rating, Pigweed",[9]; [13],0
same,"Plant response rating, Pigweed",[9]; [14],0
same,"Plant response rating, Pigweed",[9]; [15],0
same,"Plant response rating, Pigweed",[9]; [18],0
same,"Plant response rating, Pigweed",[9]; [17],0
same,Pigweed plant response rating,"[9]; Preemergence, scale 0 to 100",0
same,Ragweed plant response rating,"[10]; postemergence, 0-100 scale",0
same,"Plant response rating, Ragweed",[10]; [12],0
same,"Plant response rating, Ragweed",[10]; [13],0
same,"Plant response rating, Ragweed",[10]; [14],0
same,"Plant response rating, Ragweed",[10]; [15],0
same,"Plant response rating, Ragweed",[10]; [18],0
same,"Plant response rating, Ragweed",[10]; [17],0
same,Ragweed plant response rating,"[10]; Preemergence, scale 0 to 100",0
same,"Oat, Wild plant response rating","wild oat (Avena fatua); postemergence, 0-100 scale",90
same,"Plant response rating, Oat, Wild",wild oat (Avena fatua); [12],98
same,"Plant response rating, Oat, Wild",wild oat (Avena fatua); [13],100
same,"Plant response rating, Oat, Wild",wild oat (Avena fatua); [14],100
same,"Plant response rating, Oat, Wild",wild oat (Avena fatua); [15],80
same,"Plant response rating, Oat, Wild",wild oat (Avena fatua); [18],90
same,"Plant response rating, Oat, Wild",wild oat (Avena fatua); [17],95
same,"Oat, Wild plant response rating","wild oat (Avena fatua); Preemergence, scale 0 to 100",15
same,"Cupgrass, Woolly plant response rating","[11]; postemergence, 0-100 scale",85
same,"Plant response rating, Cupgrass, Woolly",[11]; [12],95
same,"Plant response rating, Cupgrass, Woolly",[11]; [13],100
same,"Plant response rating, Cupgrass, Woolly",[11]; [14],100
same,"Plant response rating, Cupgrass, Woolly",[11]; [15],0
same,"Plant response rating, Cupgrass, Woolly",[11]; [17],0
same,"Cupgrass, Woolly plant response rating","[11]; Preemergence, scale 0 to 100",0
